Source: patent US20240251792A1, “WEED CONTROL METHOD” (SYNGENTA CROP PROTECTION AG, priority 2021, published 2024)
Like-named read-outs stand apart in the source and are kept apart here.

Columns and labels:
Type in all cases: in vivo
ZEAMX = assay: Pre-emergence biological efficacy (Table 3); settings: after 13 days; for plant injury at 1000 g/ha / evaluation (100=total damage to plant; 0=no damage to plant): 1000 g/ha
Outline: (§1)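 Seeds were sown in standard soil in pots, kept one day in a glasshouse (24/19 °C day/night, 16 h light), then sprayed with an aqueous dilution in 0.2% Genapol X080 of a 50 g/l stock in acetone/AMA emulsifier mix. Damage was scored visually after 13 days (0 = none, 100 = total).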

IPOHE = assay: Pre-emergence biological efficacy (Table 3); settings: after 13 days; for pest or weed control at 1000 g/ha / evaluation (100=total damage to plant; 0=no damage to plant): 1000 g/ha
Outline: as §1

ECHCG = assay: Pre-emergence biological efficacy (Table 3); settings: after 13 days
Outline: as §1

SETFA = assay: Pre-emergence biological efficacy (Table 3); settings: Setaria faberi, 312 h, after 13 days, read-out: evaluation (100=total damage to plant; 0=no damage to plant)
Outline: as §1

AMAPA = assay: Pre-emergence biological efficacy (Table 3); settings: 312 h, after 13 days, read-out: evaluation (100=total damage to plant; 0=no damage to plant)
Outline: as §1

AMARE [1] = assay: Pre-emergence biological efficacy (Table 3); settings: after 13 days; for pest or weed control at 1000 g/ha / evaluation (100=total damage to plant; 0=no damage to plant): 1000 g/ha
Outline: as §1

weeds and/or crops = assay: Post-emergence biological efficacy (Table 4); settings: evaluated after 13 days; for pest or weed control at 250 g/ha / pest or weed control at 1000 g/ha: 312 h
Outline: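 Scores are visual damage (0 = none, 100 = total), read 13 days after treatment at 24/18 °C with 15 h light. Plants had been sown in standard soil and grown 14 days before a spray of compound in F50/acetone, diluted with 0.2% Genapol X080.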

STEME [2] = assay: Biological efficacy, pre-emergence glasshouse test (Table 2); settings: 1000 g/ha, after 12 days
Method: (§2) Seeds of a variety of test species were shown in unsterilised compost in small pots. After cultivation for one day (pre-emergence) or seven days (post-emergence) in controlled conditions in the glasshouse (at 24/16° C., day/night; 14 hours light; 65% humidity) the plants were sprayed with 1 mg of the active ingredient, formulated in 466 μl of a acetone/water/Tween 20 (49.75:49.75:0.5) solution, which is equivalent to 1000 g/ha. Once the foliage was dry, the pots were kept in the glasshouse (at 24/16° C., day/night; 14 hours light; 65% humidity), and were watered twice daily. After 12 days the test was evaluated and scored (100=total damage to plant, 0=no damage to plant).

LOLPE [3] = assay: as above; settings: 1000 g/ha, after 12 days
Method: as §2

DIGSA [4] = assay: as above; settings: 1000 g/ha, after 12 days
Method: as §2

AMARE [5] = assay: as above; settings: 1000 g/ha, after 12 days
Method: as §2

ABUTH = assay: Pre-emergence biological efficacy (Table 3); settings: after 13 days; for evaluation (100=total damage to plant; 0=no damage to plant): 1000 g/ha
Outline: as §1

STEME [6] = assay: Pre-emergence biological efficacy (Table 3); settings: after 13 days; for evaluation (100=total damage to plant; 0=no damage to plant): 1000 g/ha
Outline: as §1

STEME [7] = assay: Biological efficacy, post-emergence glasshouse test (Table 2); settings: 1000 g/ha, after 12 days
Method: as §2

LOLPE [8] = assay: as above; settings: 1000 g/ha, after 12 days
Method: as §2

DIGSA [9] = assay: as above; settings: 1000 g/ha, after 12 days
Method: as §2

AMARE [10] = assay: as above; settings: 1000 g/ha, after 12 days
Method: as §2

[11] = 312 h, read-out: evaluation (100=total damage to plant; 0=no damage to plant)
[12] = Ipomoea hederacea, 312 h, read-out: evaluation (100=total damage to plant; 0=no damage to plant)
[13] = Echinochloa crus-galli, 312 h, 1000 g/ha, read-out: evaluation (100=total damage to plant; 0=no damage to plant)
[14] = Amaranthus retroflexus, 312 h, read-out: evaluation (100=total damage to plant; 0=no damage to plant)

Row | SMILES | plant injury at 1000 g/ha (ZEAMX; [11]) | pest or weed control at 1000 g/ha (IPOHE; [12]) | pest or weed control at 1000 g/ha (ECHCG; [13]) | pest or weed control at 1000 g/ha (AMARE [1]; [14]) | score (100=total damage to plant, 0=no damage to plant) (STEME [2]) | score (100=total damage to plant, 0=no damage to plant) (LOLPE [3]) | score (100=total damage to plant, 0=no damage to plant) (DIGSA [4]) | score (100=total damage to plant, 0=no damage to plant) (AMARE [5]) | evaluation (100=total damage to plant; 0=no damage to plant) (ZEAMX) | evaluation (100=total damage to plant; 0=no damage to plant) (IPOHE) | evaluation (100=total damage to plant; 0=no damage to plant) (ABUTH) | evaluation (100=total damage to plant; 0=no damage to plant) (STEME [6]) | evaluation (100=total damage to plant; 0=no damage to plant) (AMARE [1]) | score (100=total damage to plant, 0=no damage to plant) (STEME [7]) | score (100=total damage to plant, 0=no damage to plant) (LOLPE [8]) | score (100=total damage to plant, 0=no damage to plant) (DIGSA [9]) | score (100=total damage to plant, 0=no damage to plant) (AMARE [10]) | damage to plant ABUTH (100=total damage; 0=no damage) (weeds and/or crops; ABUTH, 1000 g/ha) | damage to plant AMARE (100=total damage; 0=no damage) (weeds and/or crops; AMARE, 1000 g/ha) | damage to plant IPOHE (100=total damage; 0=no damage) (weeds and/or crops; IPOHE, 1000 g/ha) | further results
1 | O=C(O)C(F)(F)c1ccc(OC(F)(F)F)cc1Cl [Compound 1-59, 2-[2-Chloro-4-(trifluoromethoxy)phenyl]-2,2-difluoro-acetic acid] | – | – | – | – | – | – | – | – | – | – | – | – | – | – | – | – | – | – | – | – | plant injury at 250 g/ha (ZEAMX; 312 h, 250 g/ha, read-out: evaluation (100=total damage to plant; 0=no damage to plant)): 0%; pest or weed control at 250 g/ha (IPOHE; Ipomoea hederacea, 312 h, 250 g/ha, read-out: evaluation (100=total damage to plant; 0=no damage to plant)): 10%; pest or weed control at 250 g/ha (ECHCG; Echinochloa crus-galli, 312 h, 250 g/ha, read-out: evaluation (100=total damage to plant; 0=no damage to plant)): 0%; pest or weed control at 250 g/ha (SETFA; 250 g/ha): 10%; pest or weed control at 250 g/ha (AMAPA; 250 g/ha): 20%; pest or weed control at 250 g/ha (AMARE [1]; Amaranthus retroflexus, 312 h, 250 g/ha, read-out: evaluation (100=total damage to plant; 0=no damage to plant)): 20%; pest or weed control at 250 g/ha (weeds and/or crops; AMAPA, read-out: damage to plant AMAPA (100=total damage; 0=no damage)): 60%; pest or weed control at 250 g/ha (weeds and/or crops; ZEAMX, read-out: damage to plant ZEAMX (100=total damage; 0=no damage)): 0%; pest or weed control at 250 g/ha (weeds and/or crops; Amaranthus retroflexus, AMARE, read-out: damage to plant AMARE (100=total damage; 0=no damage)): 60%; pest or weed control at 250 g/ha (weeds and/or crops; Echinochloa crus-galli, ECHCG, read-out: damage to plant ECHCG (100=total damage; 0=no damage)): 0%; pest or weed control at 250 g/ha (weeds and/or crops; Ipomoea hederacea, IPOHE, read-out: damage to plant IPOHE (100=total damage; 0=no damage)): 40%; pest or weed control at 250 g/ha (weeds and/or crops; Setaria faberi, SETFA, read-out: damage to plant SETFA (100=total damage; 0=no damage)): 10%
2 | COCc1c(Cl)cccc1C(F)(F)C(=O)O [Compound 1-436, 2-[3-Chloro-2-(methoxymethyl)phenyl]-2,2-difluoro-acetic acid] | 0% | 40% | 0% | 30% | – | – | – | – | – | – | – | – | – | – | – | – | – | – | – | – | pest or weed control at 1000 g/ha (SETFA; 1000 g/ha): 20%; pest or weed control at 1000 g/ha (AMAPA; 1000 g/ha): 40%
3 | COc1cc(F)c(C(F)(F)C(=O)O)cc1Cl.N [Compound 7-31, Ammonium;2-(5-chloro-2-fluoro-4-methoxy-phenyl)-2,2-difluoro-acetate] | – | – | – | – | 0 | 0 | 0 | 0 | 0 | 0 | 0 | 0 | 0 | 0 | 0 | 0 | 100 | 0 | 0 | 0 | damage to plant STEME (100=total damage; 0=no damage) (weeds and/or crops; STEME, 1000 g/ha): 0; damage to plant ZEAMX (100=total damage; 0=no damage) (weeds and/or crops; ZEAMX, 1000 g/ha): 20
4 | N.N#Cc1cccc(C(F)(F)C(=O)O)c1Cl [Compound 7-231, Ammonium;2-(2-chloro-3-cyano-phenyl)-2,2-difluoro-acetate] | – | – | – | – | 100 | 40 | 80 | 90 | 50 | 80 | 90 | 100 | 90 | 80 | 0 | 70 | 90 | 90 | 90 | 80 | evaluation (100=total damage to plant; 0=no damage to plant) (ECHCG; 1000 g/ha): 10; damage to plant ECHCG (100=total damage; 0=no damage) (weeds and/or crops; ECHCG, 1000 g/ha): 10; damage to plant STEME (100=total damage; 0=no damage) (weeds and/or crops; STEME, 1000 g/ha): 100; damage to plant ZEAMX (100=total damage; 0=no damage) (weeds and/or crops; ZEAMX, 1000 g/ha): 30
5 | CCOC(=O)C(F)(F)c1cccc2cccc(C(F)(F)C(=O)OCC)c12 [Compound 3-419, Ethyl 2-[8-(2-ethoxy-1,1-difluoro-2-oxo-ethyl)-1-naphthyl]-2,2-difluoro-acetate] | 0% | 10% | 0% | 20% | 60 | 0 | 0 | 80 | – | – | – | – | – | 70 | 0 | 40 | 80 | – | – | – | pest or weed control at 1000 g/ha (ABUTH; Abutilon theophrasti, 312 h, read-out: evaluation (100=total damage to plant; 0=no damage to plant)): 30%; pest or weed control at 1000 g/ha (STEME [6]; [11]): 40%; pest or weed control at 1000 g/ha (weeds and/or crops; STEME, 1000 g/ha, read-out: damage to plant STEME (100=total damage; 0=no damage)): 100%; pest or weed control at 1000 g/ha (weeds and/or crops; ZEAMX, 1000 g/ha, read-out: damage to plant ZEAMX (100=total damage; 0=no damage)): 0%; pest or weed control at 1000 g/ha (weeds and/or crops; Abutilon theophrasti, ABUTH, 1000 g/ha, read-out: damage to plant ABUTH (100=total damage; 0=no damage)): 80%; pest or weed control at 1000 g/ha (weeds and/or crops; Amaranthus retroflexus, AMARE, 1000 g/ha, read-out: damage to plant AMARE (100=total damage; 0=no damage)): 20%; pest or weed control at 1000 g/ha (weeds and/or crops; Echinochloa crus-galli, ECHCG, 1000 g/ha, read-out: damage to plant ECHCG (100=total damage; 0=no damage)): 0%; pest or weed control at 1000 g/ha (weeds and/or crops; Ipomoea hederacea, IPOHE, 1000 g/ha, read-out: damage to plant IPOHE (100=total damage; 0=no damage)): 70%
